Two compounds from BindingDB's records for doi:10.3109/14756366.2010.487485 (Huazhong University of Science and Technology, 2011) can be followed below.

Test [1] concerns the target Disintegrin and metalloproteinase domain-containing protein 17 (Homo sapiens, UniProt P78536). Nature of the test: TACE Assay. The conditions noted are these: pH 9; 37 °C. As to the method: Then, 15ng TACE was added to buffer solution containing 140μMTACE peptide substrate at a final volume of 50 μL. After incubation for 15 min at 37°C, the reaction was stopped with 25 μL of 1% TFA. An aliquot of 25μL of internal standard solution was then added and the solution mixture was analysed by HPLC.

Test [2] deals with Matrix metalloproteinase-9 (Homo sapiens, UniProt P14780). As to the kind of experiment: MMP-9 Assay. The note with it: pH 7.5; 37 °C. As to the method: The MMP-9 assay was performed in 50 mM Tris-HCl buffer (pH 7.5, 10mM CaCl2, 150mM NaCl, 0.05% Brij-35). […] After incubation for 25 min at 37°C, the reaction was stopped with 25 μL of 1% TFA. An aliquot of 25 μL internal standard solution was then added and the solution mixture was analysed by HPLC. […] After incubation for 30 min at 37°C, 2 μL of 3 nM MMP-9 substrate was added.
Chain of Matrix metalloproteinase-9 (P14780 whole entry): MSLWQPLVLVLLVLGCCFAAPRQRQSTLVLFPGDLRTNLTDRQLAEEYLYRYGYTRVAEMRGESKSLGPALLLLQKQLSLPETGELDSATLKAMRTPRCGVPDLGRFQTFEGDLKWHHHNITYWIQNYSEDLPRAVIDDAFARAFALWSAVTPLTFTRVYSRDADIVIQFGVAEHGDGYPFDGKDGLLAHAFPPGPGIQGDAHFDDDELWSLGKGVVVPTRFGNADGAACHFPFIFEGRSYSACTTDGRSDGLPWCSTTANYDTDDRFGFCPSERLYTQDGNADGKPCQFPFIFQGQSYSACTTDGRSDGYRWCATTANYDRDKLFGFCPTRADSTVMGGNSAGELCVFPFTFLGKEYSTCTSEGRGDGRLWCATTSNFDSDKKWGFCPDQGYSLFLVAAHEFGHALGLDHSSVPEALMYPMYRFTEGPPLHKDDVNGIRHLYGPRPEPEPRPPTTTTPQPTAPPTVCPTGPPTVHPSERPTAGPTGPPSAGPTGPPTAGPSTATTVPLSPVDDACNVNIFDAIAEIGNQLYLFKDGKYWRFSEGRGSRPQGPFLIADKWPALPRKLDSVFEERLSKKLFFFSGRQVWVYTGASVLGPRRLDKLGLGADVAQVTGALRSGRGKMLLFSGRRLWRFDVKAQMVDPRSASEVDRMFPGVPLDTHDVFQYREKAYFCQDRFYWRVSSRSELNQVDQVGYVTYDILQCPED

Chain of Disintegrin and metalloproteinase domain-containing protein 17 (P78536 whole entry, the tested form may be a part): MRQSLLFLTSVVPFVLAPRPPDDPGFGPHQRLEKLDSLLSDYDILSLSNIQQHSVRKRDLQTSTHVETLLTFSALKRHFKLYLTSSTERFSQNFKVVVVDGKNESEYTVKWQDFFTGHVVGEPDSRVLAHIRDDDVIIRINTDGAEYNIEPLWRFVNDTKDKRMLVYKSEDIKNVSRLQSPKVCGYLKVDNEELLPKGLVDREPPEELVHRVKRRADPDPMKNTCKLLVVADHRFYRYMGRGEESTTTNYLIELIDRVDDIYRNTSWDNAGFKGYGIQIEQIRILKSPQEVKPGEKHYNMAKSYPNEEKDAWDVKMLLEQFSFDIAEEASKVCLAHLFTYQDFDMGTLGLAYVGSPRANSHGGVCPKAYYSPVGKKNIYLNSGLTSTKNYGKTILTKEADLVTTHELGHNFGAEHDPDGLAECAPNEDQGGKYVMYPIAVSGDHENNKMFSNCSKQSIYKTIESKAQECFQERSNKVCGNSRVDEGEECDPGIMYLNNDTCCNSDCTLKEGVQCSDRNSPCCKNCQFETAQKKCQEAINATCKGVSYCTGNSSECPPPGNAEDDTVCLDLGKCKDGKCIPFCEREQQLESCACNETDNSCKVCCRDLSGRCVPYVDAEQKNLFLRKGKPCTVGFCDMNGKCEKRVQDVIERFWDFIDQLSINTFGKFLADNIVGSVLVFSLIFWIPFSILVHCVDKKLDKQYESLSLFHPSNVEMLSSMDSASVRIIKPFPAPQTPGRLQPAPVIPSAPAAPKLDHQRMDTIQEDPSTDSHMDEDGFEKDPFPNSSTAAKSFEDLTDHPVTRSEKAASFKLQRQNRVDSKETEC

By IC50 is commonly meant the concentration that inhibits the measured activity by half. A low value points to greater potency. Take `CNC(=O)[C@H](Cc1c[nH]c2ccccc12)NC(=O)[C@@H](CC(=O)NO)CC(C)C` [GM6001]: half-maximal inhibition in test [1] (IC50) was put at 317 nM.
`O=C(Cc1cc2ccccc2oc1=O)NO` [Inhibitor A]: the IC50 in test [1] came to 175 nM; in test [2] it was 537 nM.
